This is an account of results in patent US11072611B2, “Compounds and pharmaceutical compositions thereof for the treatment of inflammatory disorders” (Galapagos NV, priority 2013, dated 2021).

The structures appear in SMILES notation.

One assay concerns tobacco smoke induced recruitment of inflammatory cells to the lungs. The assay can be described thus: Tobacco smoke (TS) model, lungs inflammatory cells recruitment. The class given is in vivo, female C57BL/6J mice. Conditions: 3 mg/kg twice daily p.o., TS-exposed mice. As for the experimental part:
The aim of this experiment is to evaluate the efficacy and potency of a test compound administered p.o., once or twice daily on days 6 to 11, vs reference compounds, on pulmonary inflammation induced by 11 days of TS-exposure in female C57BL/6J mice, by assessing the effect of a test compound on the tobacco smoke induced recruitment of inflammatory cells to the lungs.
The test compounds are formulated in PEG200/0.5% methylcellulose (25/75, v/v) and are given at a dose volume of 10 mL/kg. Roflumilast and Dexamethasone are included as positive […] control, respectively. Each treatment group consists of 10 mice.
A first group of mice is subjected to daily TS-exposure for 5 consecutive days and sacrificed on the day 6, 24 h after the final TS-exposure.
A second group is exposed to air for 5 consecutive days (sham exposure) and sacrificed on the day 6, 24 h after the final air-exposure.
Compound and reference-treated groups are subjected to daily TS-exposure for 11 consecutive days and sacrificed on the day 12, 24 h after the final TS-exposure. Mice are dosed p.o. on days 6 to 11, twice daily, 1 h prior to and 6 h after each TS-exposure, with either vehicle, or the test compound at 3, 5, 10 or 30 mg/kg. Another group is dosed p.o. on days 6 to 11, once daily, 1 h prior to each TS-exposure, with either vehicle, or the test compound at 10 mg/kg.
An additional group is dosed p.o., once daily, on days 6 to 11, with roflumilast at 5 mg/kg, 1 h prior to each TS-exposure. Dexamethasone is dosed p.o., twice daily, on days 6 to 11, at 0.3 mg/kg, 1 h prior to and 6 h after each TS-exposure.
For each mouse, a BAL is performed using 0.4 mL of PBS. The lavage fluid is centrifuged, the supernatant removed and the resulting cell pellet re-suspended for total cell counts and cytospin slide preparation. […]
The lungs are dissected out and the left lobes are removed, snap-frozen and stored at −80° C. […] Cell data are presented as individual data points for each animal and the mean value calculated for each group. […]
Percentage inhibitions for the cell data are calculated using the formula below: […]
In the case of `CCc1nc2c(C)cc(N3CCN(CC(=O)N4CC(O)C4)CC3)cn2c1N(C)c1nc(-c2ccc(F)cc2)c(C#N)s1` [Compound 2, 2-((2-ethyl-6-(4-(2-(3-hydroxyazetidin-1-yl)-2-oxoethyl)piperazin-1-yl)-8-methylimidazo[1,2-a]pyridin-3-yl)(methyl)amino)-4-(4-fluorophenyl)thiazole-5-carbonitrile], the “number of cells recovered in the BALF (macrophage cells, epithelial cells, neutrophils)” value (“number of cells recovered in the BALF” for short) is “significantly inhibited”.

Still in this assay, the particulars now being: 10 mg/kg twice daily p.o., TS-exposed mice.
With `CCc1nc2c(C)cc(N3CCN(CC(=O)N4CC(O)C4)CC3)cn2c1N(C)c1nc(-c2ccc(F)cc2)c(C#N)s1` [Compound 2, 2-((2-ethyl-6-(4-(2-(3-hydroxyazetidin-1-yl)-2-oxoethyl)piperazin-1-yl)-8-methylimidazo[1,2-a]pyridin-3-yl)(methyl)amino)-4-(4-fluorophenyl)thiazole-5-carbonitrile], the “number of cells recovered in the BALF” value is given as “significantly inhibited”.

As for `CCc1nc2c(F)cc(N3CCN(CC(=O)N4CC(O)C4)CC3)cn2c1N(C)c1nc(-c2ccc(F)cc2)c(C#N)s1` [Compound 12, 2-((2-ethyl-8-fluoro-6-(4-(2-(3-hydroxyazetidin-1-yl)-2-oxoethyl)piperazin-1-yl)imidazo[1,2-a]pyridin-3-yl)(methyl)amino)-4-(4-fluorophenyl)thiazole-5-carbonitrile], the “number of cells recovered in the BALF” value was “significantly inhibited”.

The next assay deals with LPA 18:2. The assay can be described thus: Human whole blood (plasma) LPA assay. The class given is biochemical. Conditions: 2 h at 37° C., LPA 18:2 by LC-MS/MS. As to the method:
Blood is collected from healthy volunteers who gave informed consent into sodium heparin tubes by venipuncture, then gently inverted several times to prevent clotting. Tubes are centrifuged at 3000 rpm for 15 min at 4° C. then plasma is stored at −80° C. Compounds are diluted in DMSO in concentration dependent manner then 0.5 μL are dispensed into 96-well plate placed in ice. Plasma is defrosted on ice then 49.5 μL of plasma are added into the well containing 0.5 μL of compound (1% DMSO final). Plates are covered with a lid in polypropylene and incubated at +37° C., 5% CO2, for 2 h under gentle shaking (except controls which are stored at −20° C.).
(§1) At the end of the incubation, controls are defrosted in ice and transferred in the incubated plates for LC-MS/MS analysis with a non GLP-validated method. For the analysis, plasma proteins from a 10 μL incubated plates are precipitated with an excess of methanol containing the internal standard, LPA 17:0. After centrifugation, the corresponding supernatant is injected on a C18 column. Analytes are eluted out of the column under isocratic conditions. An API5500 QTRAP mass spectrometer (ABSciex™) is used for the detection of LPA 18:2. No calibration curve is prepared for LPA 18:2, however relative quantities are evaluated based on the peak area.
What is called IC50 is the point on the concentration scale where inhibition reaches its midpoint. `CCc1nc2ccc(C3CCN(S(C)(=O)=O)CC3)cn2c1N(C)c1nc(-c2ccc(F)cc2)cs1` [Compound 80, N-(2-ethyl-6-(1-(methylsulfonyl)piperidin-4-yl)imidazo[1,2-a]pyridin-3-yl)-4-(4-fluorophenyl)-N-methylthiazol-2-amine] displayed an IC50 of over 1000 nM. Still for that read-out and setting: in the case of `CCc1nc2ccc(C3CCN(CC(=O)N4CC(O)C4)CC3)cn2c1N(C)c1nc(-c2ccc(F)cc2)cs1` [Compound 110, 2-(4-(2-ethyl-3-((4-(4-fluorophenyl)thiazol-2-yl)(methyl)amino)imidazo[1,2-a]pyridin-6-yl)piperidin-1-yl)-1-(3-hydroxyazetidin-1-yl)ethanone] it was over 1000 nM.

In the next assay the test system is LPA 18:2. The assay can be described thus: Rat whole blood (plasma) LPA assay. The assay is classed as biochemical. Conditions: 2 h at 37° C., LPA 18:2 by LC-MS/MS. As for the experimental part:
Whole blood is collected from rats or mouse by exsanguinations on sodium heparin tube, then after centrifugation at 3000 rpm for 15 min at 4° C., plasma is stored at −80° C. Compounds are diluted in DMSO in concentration dependent manner then 0.5 μL are dispensed into 96-well plate placed in ice. Plasma is defrosted on ice then 49.5 μL of plasma are added into the well containing 0.5 μL of compound (1% DMSO final). Plates are covered with a lid in polypropylene and incubated at +37° C., 5% CO2, for 2 h under gentle shaking (except controls which are stored at −20° C.).
as §1
Regarding `CCc1nc2c(F)cc(N3CCN(CC(=O)N4CC(O)C4)CC3)cn2c1N(C)c1nc(-c2ccc(F)cc2)c(C#N)s1` [Compound 12, 2-((2-ethyl-8-fluoro-6-(4-(2-(3-hydroxyazetidin-1-yl)-2-oxoethyl)piperazin-1-yl)imidazo[1,2-a]pyridin-3-yl)(methyl)amino)-4-(4-fluorophenyl)thiazole-5-carbonitrile], the IC50 fell in the range of 0.01 to 100 nM.

As to `CCc1nc2ccc(C3CCN(CC(=O)N4CC(O)C4)CC3)cn2c1N(C)c1nc(-c2ccc(F)cc2)cs1` [Compound 110, 2-(4-(2-ethyl-3-((4-(4-fluorophenyl)thiazol-2-yl)(methyl)amino)imidazo[1,2-a]pyridin-6-yl)piperidin-1-yl)-1-(3-hydroxyazetidin-1-yl)ethanone], the IC50 was over 1000 nM. In the case of `CCc1nc2ccc(C3CCN(S(=O)(=O)CCCN(C)C)CC3)cn2c1N(C)c1nc(-c2ccc(F)cc2)c(CO)s1` [Compound 149, (2-((6-(1-(3-(dimethylamino)propylsulfonyl)piperidin-4-yl)-2-ethylimidazo[1,2-a]pyridin-3-yl)(methyl)amino)-4-(4-fluorophenyl)thiazol-5-yl)], the IC50 is over 1000 nM.

On to `CCc1nc2ccc(C3CCN(CC(=O)N4CC(O)C4)CC3)cn2c1N(C)c1nc(-c2ccc(F)cc2)c(CO)s1` [Compound 156, 2-(4-(2-ethyl-3-((4-(4-fluorophenyl)-5-(hydroxymethyl)thiazol-2-yl)(methyl)amino)imidazo[1,2-a]pyridin-6-yl)piperidin-1-yl)-1-(3-hydroxyazetidin-1-yl)ethanone], for which the IC50 is over 1000 nM.

In the case of `CCc1nc2ccc(C3CCN(S(C)(=O)=O)CC3)cn2c1N(C)c1nc(-c2ccc(F)cc2)c(C(=O)C(F)(F)F)s1` [Compound 160, 1-(2-((2-ethyl-6-(1-(methylsulfonyl)piperidin-4-yl)imidazo[1,2-a]pyridin-3-yl)(methyl)amino)-4-(4-fluorophenyl)thiazol-5-yl)-2,2,2-trifluoroethanone], the IC50 lay within 0.01 to 100 nM.

With `CN(C)C(=O)CN1CCC(c2ccc3nc(CCC#N)c(N(C)c4nc(-c5ccc(F)cc5)cs4)n3c2)CC1` [Compound 174, 2-(4-(2-(2-cyanoethyl)-3-((4-(4-fluorophenyl)thiazol-2-yl)(methyl)amino)imidazo[1,2-a]pyridin-6-yl)piperidin-1-yl)-N,N-dimethylacetamide], the IC50 lay in the range of 0.01 to 100 nM. In turn, `CN(c1nc(-c2ccc(F)cc2)c(CO)s1)c1c(CCC#N)nc2ccc(C3CCN(S(C)(=O)=O)CC3)cn12` [Compound 175, 3-(3-((4-(4-fluorophenyl)-5-(hydroxymethyl)thiazol-2-yl)(methyl)amino)-6-(1-(methylsulfonyl)piperidin-4-yl)imidazo[1,2-a]pyridin-2-yl)propanenitrile] displayed an IC50 of 0.01 to 100 nM. `CCc1nc2ccc(N3CCN(CCO)CC3)cn2c1N(C)c1nc(-c2ccc(F)cc2)cs1` [Compound 180, 2-(4-(2-ethyl-3-((4-(4-fluorophenyl)thiazol-2-yl)(methyl)amino)imidazo[1,2-a]pyridin-6-yl)piperazin-1-yl)ethanol] yielded an IC50 of over 1000 nM. The compound `CCc1nc2ccc(N3CCS(=O)(=O)CC3)cn2c1N(C)c1nc(-c2ccc(F)cc2)cs1` [Compound 182, 4-(2-ethyl-3-((4-(4-fluorophenyl)thiazol-2-yl)(methyl)amino)imidazo[1,2-a]pyridin-6-yl)-thiomorpholine 1,1-dioxide] gave an IC50 of over 1000 nM.

`CCc1nc2ccc(N3CCN(S(C)(=O)=O)CC3)cn2c1N(C)c1nc(-c2ccc(Cl)cc2)ns1` [Compound 188, 3-(4-chlorophenyl)-N-(2-ethyl-6-(4-(methylsulfonyl)piperazin-1-yl)imidazo[1,2-a]pyridin-3-yl)-N-methyl-1,2,4-thiadiazol-5-amine] yielded an IC50 of over 1000 nM. The compound `CCc1nc2ccc(N3CCN(Cc4cnc[nH]4)CC3)cn2c1N(C)c1nc(-c2ccc(F)cc2)cs1` [Compound 192, N-(6-(4-((1H-imidazol-5-yl)methyl)piperazin-1-yl)-2-ethylimidazo[1,2-a]pyridin-3-yl)-4-(4-fluorophenyl)-N-methylthiazol-2-amine] displayed an IC50 of over 1000 nM.

`CCc1nc2ccc(N3CCN(C(=O)[C@H](C)O)CC3)cn2c1N(C)c1nc(-c2ccc(F)cc2)cs1` [Compound 203, (S)-1-(4-(2-ethyl-3-((4-(4-fluorophenyl)thiazol-2-yl)(methyl)amino)imidazo[1,2-a]pyridin-6-yl)piperazin-1-yl)-2-hydroxypropan-1-one]: the IC50 was over 1000 nM. `CCc1nc2ccc(N3CCOC3=O)cn2c1N(C)c1nc(-c2ccc(Cl)cc2)cs1` [Compound 206, 3-(3-((4-(4-chlorophenyl)thiazol-2-yl)(methyl)amino)-2-ethylimidazo[1,2-a]pyridin-6-yl)oxazolidin-2-one] gave an IC50 of over 1000 nM. `CCc1nc2ccc(N3CCN(CCO)CC3)cn2c1N(C)c1nc(-c2ccc(Cl)cc2)cs1` [Compound 212, 2-(4-(3-((4-(4-chlorophenyl)thiazol-2-yl)(methyl)amino)-2-ethylimidazo[1,2-a]pyridin-6-yl)piperazin-1-yl)ethanol] came in with an IC50 of over 1000 nM.

As for `CCc1nc2ccc(N3CCS(=O)(=O)CC3)cn2c1N(C)c1nc(-c2ccc(Cl)cc2)cs1` [Compound 213, 4-(2-ethyl-3-((4-(4-chlorophenyl)thiazol-2-yl)(methyl)amino)imidazo[1,2-a]pyridin-6-yl)-thiomorpholine-1,1-dioxide], the 50% inhibitory concentration (IC50) is over 1000 nM. On to `CCc1nc2ccc(N3CCN(Cc4ncc[nH]4)CC3)cn2c1N(C)c1nc(-c2ccc(F)cc2)cs1` [Compound 226, N-(6-(4-((1H-imidazol-2-yl)methyl)piperazin-1-yl)-2-ethylimidazo[1,2-a]pyridin-3-yl)-4-(4-fluorophenyl)-N-methylthiazol-2-amine], for which the IC50 was over 1000 nM.
